Source: patent publication US20220364179A1, “METHODS AND COMPOSITIONS FOR ASSESSING AND PREDICTING THERAPEUTIC RESPONSE” (Lankenau Institute for Medical Research, priority 2019, published 2022)

Assays:
brain metastases = test: whole brain radiotherapy with low-dose chloroquine in patients with brain metastases; format: in vivo, human; conditions: low-dose chloroquine in continuous cycles one week before and during standard of care irradiation; N=20; P=0.07
mouse tumor models = conditions: cited from earlier work
rheumatoid arthritis = conditions: mouse model of rheumatoid arthritis; Merlo et al. 2014; cited from earlier work
melanoma = melanoma cohort, response to therapy by IDO2 genotype; format: in vivo, human
Method: In the melanoma cohort, 84 patients were genotyped with 6 patients returning uncertain results. The remaining 78 patients, including 52 males and 26 females, were treated and analyzed in a similar way to the PDAC patients of Example 3 above. The results of the 46 patients, including 31 males and 15 females, in this cohort that responded positively to IDO and/or other indicated therapies were also analyzed.

[1] = system: metastatic adenocarcinoma of the pancreas; test: Phase I/II trial NCT02077881: indoximod with gemcitabine plus nab-paclitaxel, responses by IDO2 genotype; format: in vivo, human; conditions: for PR + CR (positive response), row % / PR + CR, number of patients: + gemcitabine plus nab-paclitaxel
Method: The treatment protocol was as described in ClinicalTrials.gov Identifier NCT02077881, which was a Phase I/II trial designed to evaluate the combination of the immunotherapeutic agent indoximod (an IDO inhibitor) and the standard of care chemotherapy gemcitabine plus nab-paclitaxel in subjects with metastatic adenocarcinoma of the pancreas. Participants received oral indoximod (600 mg, […], or 1200 mg according to their assigned dose cohort) twice daily for 28 days concurrently with IV Nab-paclitaxel 125 mg/m^2 given intravenously over 30-40 minutes for 3 weeks (days 1, 8 and 15) with 1 week rest, followed by gemcitabine 1000 mg/m^2 given intravenously over 30 minutes for 3 weeks (days 1, 8 and 15) with 1 week rest. All subjects will receive the standard 28-day gemcitabine plus nab-paclitaxel regimen. Twice daily oral indoximod was administered concurrently in continuous 28 day cycles. Patients continued until they experienced disease progression or significant toxicity.
Genotyping to detect the wild-type IDO2 alleles or a polymorphisms in one or both alleles was performed using a protocol as provided in Example 2.
Two-sample tests of independent proportions were performed to compare the percentage of positive responders between two groups. Observed versus expected genotype distributions were compared using one-sample tests of proportions. The significance level was set to 0.05 and all tests were one-sided except for the tests comparing response by sex and the tests comparing observed and expected genotypes. Analyses were performed in Stata/MP 15.1 (StataCorp LP., Texas, USA). See the data in FIG. 6A -6D.

[2] = Females, all genotypes, no exclusions, Total 40
[3] = Females, excludes (+/p or p/p) uncertain genotype, Total 32
[4] = Males, all genotypes, no exclusions, Total 67
[5] = Males, excludes (+/p or p/p) uncertain genotype, Total 47
[6] = genotype +/+ or +/p, both sexes, Total 56
[7] = genotype +/+ or +/p, females only, Total 22
[8] = genotype +/+ or +/p, males only, Total 34
[9] = genotype +/+, both sexes, excludes uncertain genotype, Total 15
[10] = genotype +/+, females only, excludes uncertain genotype, Total 7
[11] = genotype +/+, males only, excludes uncertain genotype, Total 8
[12] = genotype +/p, both sexes, excludes uncertain genotype, Total 41
[13] = genotype +/p, females only, excludes uncertain genotype, Total 15
[14] = genotype +/p, males only, excludes uncertain genotype, Total 26
[15] = genotype p/p, both sexes, excludes uncertain genotype, Total 23
[16] = genotype p/p, females only, excludes uncertain genotype, Total 10
[17] = genotype p/p, males only, excludes uncertain genotype, Total 13

CCN(CC)CCCC(C)Nc1ccnc2cc(Cl)ccc12 (stereo not drawn) [chloroquine]
survival outcomes (brain metastases): trend in improvement of survival outcomes

Cn1cc(CC(N)C(=O)O)c2ccccc21 [D, L-1MT]
effect on efficacy of radiotherapy (mouse tumor models): improve the efficacy of radiotherapy

Cn1cc(C[C@H](N)C(=O)O)c2ccccc21 [indoximod, 1-methyl-tryptophan]
therapeutic responses after deletion of the IDO2 gene (rheumatoid arthritis): ablate therapeutic responses | more frequent response than the expected population (melanoma; female cohort, patients with the +/+ or +/p alleles): 41% | less frequent response than the expected population (melanoma; female patients without the active allele (p/p)): 70% | overall survival (melanoma; inactive IDO2 genetic configuration, adjuvant radiotherapy including treatment with indoximod): extended overall survival | PR + CR (positive response), row % [1, 2]: 60.0% | PR + CR, number of patients [1, 2]: 24 | PR + CR (positive response), row % [1, 3]: 62.5% | PR + CR, number of patients [1, 3]: 20 | PR + CR (positive response), row % [1, 4]: 43.3% | PR + CR, number of patients [1, 4]: 29 | PR + CR (positive response), row % [1, 5]: 51.1% | PR + CR, number of patients [1, 5]: 24 | PR + CR, number of patients ([1]; both sexes, excludes (+/p or p/p) uncertain genotype, Total 79): 44 | PR + CR (positive response), row % ([1]; both sexes, includes uncertain genotype, Total 51): 35.3% | PR + CR, number of patients ([1]; genotype (+/p or p/p) or p/p, both sexes, includes uncertain genotype, Total 51): 18 | PR + CR, number of patients ([1]; genotype (+/p or p/p) or p/p, males only, includes uncertain genotype, Total 33): 9 | PR + CR (positive response), row % [1, 6]: 62.5% | PR + CR, number of patients [1, 6]: 35 | PR + CR (positive response), row % [1, 7]: 68.2% | PR + CR, number of patients [1, 7]: 15 | PR + CR (positive response), row % [1, 8]: 58.8% | PR + CR, number of patients [1, 8]: 20 | PR + CR (positive response), row % [1, 9]: 53.3% | PR + CR, number of patients [1, 9]: 8 | PR + CR (positive response), row % [1, 10]: 42.9% | PR + CR, number of patients [1, 10]: 3 | PR + CR (positive response), row % [1, 11]: 62.5% | PR + CR, number of patients [1, 11]: 5 | PR + CR (positive response), row % [1, 12]: 65.9% | PR + CR, number of patients [1, 12]: 27 | PR + CR (positive response), row % [1, 13]: 80.0% | PR + CR, number of patients [1, 13]: 12 | PR + CR (positive response), row % [1, 14]: 57.7% | PR + CR, number of patients [1, 14]: 15 | PR + CR (positive response), row % [1, 15]: 39.1% | PR + CR, number of patients [1, 15]: 9 | PR + CR (positive response), row % [1, 16]: 50.0% | PR + CR, number of patients [1, 16]: 5 | PR + CR (positive response), row % [1, 17]: 30.8% | PR + CR, number of patients [1, 17]: 4 | PR + CR (positive response), row % ([1]; males only, includes uncertain genotype, Total 33): 27.3% | PR + CR, number of patients ([1]; whole cohort, both sexes, no exclusions, Total 107): 53 | therapeutic responses, outcomes stratified to IDO2 genotype ([1]; in combination with gemcitabine in PDAC patients, patients harboring functional IDO2 alleles, initial cohort): trend in improved therapeutic responses
